Experimental data taken from the supplement of paper PMC10307832.

Experiments:
Experiment in all cases: relative viability (nuclei count vs DMSO), 5 days (fraction); higher = more cells survive
[1] = compound: C1=CC2=C(C=C(C(=C2N=C1)O)N=NC3=CC4=C(C=C3)C=C(C=C4)S(=O)(=O)O)S(=O)(=O)O + CC(=O)Nc1cccc(-n2c(=O)n(C3CC3)c(=O)c3c(Nc4ccc(I)cc4F)n(C)c(=O)c(C)c32)c1 [Trametinib] (partner 0.02 µM)
Summary of the method: (§1)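 Lung cancer cell lines in 1536-well plates got either a single drug or a fixed anchor-drug dose together with five library-drug doses (not always all listed) in √10 steps, by pin tool, on the day after seeding. Nuclei were counted after 5 days, and relative viability is the treated-to-vehicle ratio of nuclei counts. Values are medians of duplicate plates.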

[2] = compound: C1=CC2=C(C=C(C(=C2N=C1)O)N=NC3=CC4=C(C=C3)C=C(C=C4)S(=O)(=O)O)S(=O)(=O)O + CC(=O)c1c(C)c2cnc(Nc3ccc(N4CCNCC4)cn3)nc2n(C2CCCC2)c1=O [Palbociclib] (partner 0.5 µM)
Summary of the method: as §1

[3] = compound: C1=CC2=C(C=C(C(=C2N=C1)O)N=NC3=CC4=C(C=C3)C=C(C=C4)S(=O)(=O)O)S(=O)(=O)O + CC1(C)CCC(c2ccc(Cl)cc2)=C(CN2CCN(c3ccc(C(=O)NS(=O)(=O)c4ccc(N[C@H](CCN5CCOCC5)CSc5ccccc5)c(S(=O)(=O)C(F)(F)F)c4)cc3)CC2)C1 [Navitoclax] (partner 0.5 µM)
Summary of the method: as §1

[4] = compound: C1=CC2=C(C=C(C(=C2N=C1)O)N=NC3=CC4=C(C=C3)C=C(C=C4)S(=O)(=O)O)S(=O)(=O)O + C[C@]1(O)C[C@@H](c2nc(-c3ccc4ccc(-c5ccccc5)nc4c3)c3c(N)nccn32)C1 [Linsitinib] (partner 1 µM)
Summary of the method: as §1

| Cell Line | relative viability ([1]; first compound 0.08 µM) | relative viability ([1]; first compound 0.253 µM) | relative viability ([1]; first compound 0.8 µM) | relative viability ([1]; first compound 2.53 µM) | relative viability ([1]; first compound 8 µM) | relative viability ([2]; first compound 0.08 µM) | relative viability ([2]; first compound 0.253 µM) | relative viability ([2]; first compound 0.8 µM) | relative viability ([2]; first compound 2.53 µM) | relative viability ([2]; first compound 8 µM) | relative viability ([3]; first compound 0.08 µM) | relative viability ([3]; first compound 0.253 µM) | relative viability ([3]; first compound 0.8 µM) | relative viability ([3]; first compound 2.53 µM) | relative viability ([3]; first compound 8 µM) | relative viability ([4]; first compound 0.08 µM) | relative viability ([4]; first compound 0.253 µM) | relative viability ([4]; first compound 0.8 µM) | relative viability ([4]; first compound 2.53 µM) | relative viability ([4]; first compound 8 µM) |
| --- | --- | --- | --- | --- | --- | --- | --- | --- | --- | --- | --- | --- | --- | --- | --- | --- | --- | --- | --- | --- |
| NCI-H2405 | 0.635 | 0.597 | 0.599 | 0.686 | 0.687 | 0.517 | 0.543 | 0.504 | 0.575 | 0.513 | 0.86 | 0.746 | 0.959 | 0.993 | 0.788 | 0.909 | 0.873 | 0.943 | 1.04 | 0.948 |
| NCI-H3122 | 0.218 | 0.225 | 0.227 | 0.242 | 0.225 | 0.215 | 0.185 | 0.176 | 0.2 | 0.216 | 0.98 | 1.04 | 0.996 | 1.03 | 1.04 | 0.998 | 0.962 | 0.969 | 1.01 | 0.96 |
| PC-3 [JPC-3] | 0.78 | 0.725 | 0.737 | 0.735 | 0.644 | 0.572 | 0.566 | 0.528 | 0.577 | 0.565 | 0.888 | 0.748 | 0.854 | 0.722 | 0.725 | 0.998 | 0.93 | 0.94 | 0.965 | 0.97 |
| PC-14 | 0.743 | 0.688 | 0.782 | 0.838 | 0.69 | 0.653 | 0.52 | 0.548 | 0.597 | 0.474 | 1.02 | 0.973 | 0.982 | 1.05 | 1.01 | 1.03 | 0.936 | 0.962 | 0.948 | 1.1 |
| RERF-LC-KJ | 0.935 | 0.864 | 0.849 | 0.96 | 0.644 | 1.31 | 1.13 | 1.11 | 1.06 | 1.01 | 1.12 | 1.01 | 0.963 | 1.05 | 0.877 | 0.945 | 0.954 | 0.888 | 0.979 | 0.87 |
| SK-LU-1 | 0.681 | 0.509 | 0.517 | 0.499 | 0.672 | 0.456 | 0.391 | 0.344 | 0.399 | 0.428 | 1.15 | 0.947 | 0.747 | 0.732 | 0.801 | 1.38 | 1.13 | 1.14 | 1.14 | 1.03 |
| SK-MES-1 | 0.514 | 0.54 | 0.587 | 0.585 | 0.548 | 0.351 | 0.332 | 0.34 | 0.318 | 0.342 | 1.26 | 1.16 | 1.31 | 1.26 | 1.19 | 1.17 | 1.01 | 1.05 | 1.04 | 1.06 |
| SW 1573 | 0.514 | 0.477 | 0.608 | 0.564 | 0.0865 | 0.463 | 0.41 | 0.397 | 0.38 | 0.0522 | 1.01 | 0.971 | 1.03 | 0.964 | 0.977 | 0.779 | 0.734 | 0.816 | 0.875 | 0.75 |
| UMC-11 | 0.74 | 0.777 | 0.658 | 0.728 | 0.766 | 0.325 | 0.329 | 0.326 | 0.339 | 0.324 | 0.261 | 0.334 | 0.314 | 0.293 | 0.333 | 1.11 | 0.943 | 1.03 | 1.02 | 0.944 |
